# Reference: patent US20260262643A1, “HERBICIDAL BENZOXAZINES” (FMC CORPORATION, priority 2022, published 2026)
# Columns and labels:
# [1] = tested on: barnyardgrass; experiment: Test C preemergence; type: in vivo, Echinochloa crusgalli; details: for Barnyardgrass plant response rating: preemergence; for Plant response rating, Barnyardgrass: Preemergence
# In short: (§1)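 Greenhouse herbicide screen, 10-day duration. Test chemicals in solvent/surfactant blend were sprayed onto soil at sowing (pre) or onto 2–10 cm seedlings at one to two leaves (post); injury scored visually against controls, 0 no effect to 100 complete control.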
# [2] = tested on: blackgrass; experiment: Test C preemergence; type: in vivo, Alopecurus myosuroides; details: for Plant response rating, Blackgrass: Preemergence; for Blackgrass plant response rating: preemergence
# In short: as §1
# [3] = tested on: corn; experiment: Test C preemergence; type: in vivo, Zea mays; details: for Corn plant response rating: preemergence, 0 to 100 scale (0 no effect, 100 complete control)
# In short: as §1
# [4] = tested on: green foxtail; experiment: Test C preemergence; type: in vivo, Setaria viridis; details: for Plant response rating, Foxtail, Green: Preemergence; for Foxtail, Green plant response rating: preemergence
# In short: as §1
# [5] = tested on: kochia; experiment: Test C preemergence; type: in vivo, Bassia scoparia; details: for Plant response rating, Kochia: Preemergence; for Kochia plant response rating: preemergence
# In short: as §1
# [6] = tested on: oat, wild; experiment: Test C preemergence; type: in vivo, Avena fatua; details: for Plant response rating, Oat, Wild: Preemergence; for Oat, Wild plant response rating: preemergence
# In short: as §1
# [7] = tested on: pigweed, palmer; experiment: Test C preemergence; type: in vivo, Amaranthus palmeri; details: for Plant response rating, Pigweed, Palmer: Preemergence; for Pigweed, Palmer plant response rating: preemergence
# In short: as §1
# [8] = tested on: ragweed; experiment: Test C preemergence; type: in vivo, Ambrosia artemisiifolia; details: for Plant response rating, Ragweed: Preemergence; for Ragweed plant response rating: preemergence
# In short: as §1
# [9] = tested on: ryegrass, Italian; experiment: Test C preemergence; type: in vivo, Lolium multiflorum; details: for Plant response rating, Ryegrass, Italian: Preemergence; for Ryegrass, Italian plant response rating: preemergence
# In short: as §1
# [10] = tested on: soybean; experiment: Test C preemergence; type: in vivo, Glycine max; details: for Plant response rating, Soybean: Preemergence; for Soybean plant response rating: preemergence
# In short: as §1
# [11] = tested on: wheat; experiment: Test C preemergence; type: in vivo, Triticum aestivum; details: for Plant response rating, Wheat: Preemergence; for Wheat plant response rating: preemergence
# In short: as §1
# [12] = tested on: barnyardgrass; experiment: Test C postemergence; type: in vivo, Echinochloa crusgalli; details: 10 days
# In short: as §1
# [13] = tested on: blackgrass; experiment: Test C postemergence; type: in vivo, Alopecurus myosuroides; details: 10 days
# In short: as §1
# [14] = tested on: corn; experiment: Test C postemergence; type: in vivo, Zea mays; details: 10 days
# In short: as §1
# [15] = tested on: green foxtail; experiment: Test C postemergence; type: in vivo, Setaria viridis; details: 10 days
# In short: as §1
# [16] = tested on: kochia; experiment: Test C postemergence; type: in vivo, Bassia scoparia; details: 10 days
# In short: as §1
# [17] = tested on: oat, wild; experiment: Test C postemergence; type: in vivo, Avena fatua; details: 10 days
# In short: as §1
# [18] = tested on: pigweed, palmer; experiment: Test C postemergence; type: in vivo, Amaranthus palmeri; details: 10 days
# In short: as §1
# [19] = tested on: ragweed; experiment: Test C postemergence; type: in vivo, Ambrosia artemisiifolia; details: 10 days
# In short: as §1
# [20] = tested on: ryegrass, Italian; experiment: Test C postemergence; type: in vivo, Lolium multiflorum; details: 10 days
# In short: as §1
# [21] = tested on: soybean; experiment: Test C postemergence; type: in vivo, Glycine max; details: 10 days
# In short: as §1
# [22] = tested on: wheat; experiment: Test C postemergence; type: in vivo, Triticum aestivum; details: 10 days
# In short: as §1
# [23] = tested on: galium; experiment: Test C postemergence; type: in vivo, Galium aparine; details: 10 days
# In short: as §1
# [24] = tested on: horseweed; experiment: Test C postemergence; type: in vivo, Erigeron canadensis; details: 10 days
# In short: as §1
# [25] = tested on: barnyardgrass; experiment: Test D flooded paddy test; type: in vivo, Echinochloa crus-galli; details: 250 g ai/ha, applied to paddy water, visual rating after 13 to 14 days, scale 0 to 100 (0 no effect, 100 complete control)
# In short: (§2)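 Plants at the 2-leaf stage were grown in pots flooded to 3 cm, and compound was applied directly into the paddy water, with depth kept throughout. After 13–14 days in a greenhouse, injury was rated visually against untreated controls on a 0–100 scale (100 = complete control); a dash means not tested.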
# [26] = tested on: ducksalad; experiment: Test D flooded paddy test; type: in vivo, Heteranthera limosa; details: 250 g ai/ha, applied to paddy water, visual rating after 13 to 14 days, scale 0 to 100 (0 no effect, 100 complete control)
# In short: as §2
# [27] = tested on: rice; experiment: Test D flooded paddy test; type: in vivo, Oryza sativa; details: 250 g ai/ha, applied to paddy water, visual rating after 13 to 14 days, scale 0 to 100 (0 no effect, 100 complete control)
# In short: as §2
# [28] = tested on: sedge, umbrella; experiment: Test D flooded paddy test; type: in vivo, Cyperus difformis; details: 250 g ai/ha, applied to paddy water, visual rating after 13 to 14 days, scale 0 to 100 (0 no effect, 100 complete control)
# In short: as §2
# [29] = 500 g ai/ha, visual rating after 10 days, 0 to 100 scale (0 no effect, 100 complete control)
# [30] = Test C, 125 g ai/ha, 0 to 100 scale (0 no effect, 100 complete control)
# [31] = 125 g ai/ha, postemergence, 0 to 100 scale, 0 no effect, 100 complete control
# [32] = Postemergence, 500 g ai/ha, visual 0 to 100 scale (0 no effect, 100 complete control)
# [33] = 500 g ai/ha, 0 to 100 scale (0 no effect, 100 complete control)
# [34] = 125 g ai/ha, 0 to 100 scale, 0 no effect, 100 complete control
# [35] = 500 g ai/ha, postemergence, 0 to 100 scale (0 no effect, 100 complete control)
# [36] = Postemergence, 125 g ai/ha, 0 to 100 scale (0 no effect, 100 complete control)
smiles,measurement,setting,value
Cc1ccc(-n2cnc(C3(C(F)(F)F)CCC3)n2)cc1C(=O)N1C[C@H](C)Oc2c(Cl)cccc21 [Compound 168],Barnyardgrass plant response rating,"[1]; 125 g ai/ha, 0 to 100 scale (0 no effect, 100 complete control)",50
same,"Plant response rating, Barnyardgrass",[1]; [29],70
same,"Plant response rating, Blackgrass",[2]; [29],60
same,Blackgrass plant response rating,[2]; [30],20
same,Corn plant response rating,"[3]; Test C, 125 g ai/ha",0
same,"Plant response rating, Foxtail, Green",[4]; [29],100
same,"Foxtail, Green plant response rating",[4]; [30],50
same,"Plant response rating, Kochia",[5]; [29],50
same,Kochia plant response rating,[5]; [30],0
same,"Plant response rating, Oat, Wild",[6]; [29],20
same,"Oat, Wild plant response rating",[6]; [30],0
same,"Plant response rating, Pigweed, Palmer",[7]; [29],100
same,"Pigweed, Palmer plant response rating",[7]; [30],100
same,"Plant response rating, Ragweed",[8]; [29],60
same,Ragweed plant response rating,[8]; [30],30
same,"Plant response rating, Ryegrass, Italian",[9]; [29],90
same,"Ryegrass, Italian plant response rating",[9]; [30],70
same,"Plant response rating, Soybean",[10]; [29],60
same,Soybean plant response rating,[10]; [30],60
same,"Plant response rating, Wheat",[11]; [29],20
same,Wheat plant response rating,[11]; [30],0
same,"Plant response rating, Barnyardgrass",[12]; [31],10
same,"Plant response rating, Barnyardgrass",[12]; [32],30
same,"Plant response rating, Blackgrass",[13]; [31],0
same,"Plant response rating, Blackgrass",[13]; [32],0
same,"Plant response rating, Corn",[14]; [31],10
same,"Plant response rating, Corn",[14]; [32],10
same,"Plant response rating, Foxtail, Green",[15]; [31],20
same,"Plant response rating, Foxtail, Green",[15]; [32],30
same,"Plant response rating, Kochia",[16]; [31],80
same,"Plant response rating, Kochia",[16]; [32],80
same,"Plant response rating, Oat, Wild",[17]; [31],0
same,"Plant response rating, Oat, Wild",[17]; [32],0
same,"Plant response rating, Pigweed, Palmer",[18]; [31],70
same,"Plant response rating, Pigweed, Palmer",[18]; [32],90
same,"Plant response rating, Ragweed",[19]; [31],60
same,"Plant response rating, Ragweed",[19]; [32],70
same,"Plant response rating, Ryegrass, Italian",[20]; [31],20
same,"Plant response rating, Ryegrass, Italian",[20]; [32],40
same,"Plant response rating, Soybean",[21]; [31],100
same,"Plant response rating, Soybean",[21]; [32],100
same,"Plant response rating, Wheat",[22]; [31],10
same,"Plant response rating, Wheat",[22]; [32],20
same,"Plant response rating, Galium",[23]; [31],80
same,"Plant response rating, Galium",[23]; [32],90
same,"Plant response rating, Horseweed",[24]; [31],0
same,"Plant response rating, Horseweed",[24]; [32],10
same,"Plant response rating, Barnyardgrass (Flood)",[25],0
same,"Plant response rating, Ducksalad (Flood)",[26],0
same,"Plant response rating, Rice (Flood)",[27],0
same,"Plant response rating, Sedge, Umbrella (Flood)",[28],0
CCOC[C@H]1CN(C(=O)c2cc(-n3cnc(C(C)(C)C)n3)cc3c2OCCO3)c2cccc(Cl)c2O1 [Compound 388],Barnyardgrass plant response rating,[1]; [33],90
same,"Plant response rating, Barnyardgrass",[1]; [34],50
same,Blackgrass plant response rating,[2]; [33],40
same,"Plant response rating, Blackgrass",[2]; [34],10
same,Corn plant response rating,[3]; 500 g ai/ha,10
same,"Plant response rating, Corn","[3]; Preemergence, 125 g ai/ha, 0 to 100 scale, 0 no effect, 100 complete control",. 10
same,"Foxtail, Green plant response rating",[4]; [33],100
same,"Plant response rating, Foxtail, Green",[4]; [34],60
same,Kochia plant response rating,[5]; [33],100
same,"Plant response rating, Kochia",[5]; [34],40
same,"Oat, Wild plant response rating",[6]; [33],40
same,"Plant response rating, Oat, Wild",[6]; [34],20
same,"Pigweed, Palmer plant response rating",[7]; [33],100
same,"Plant response rating, Pigweed, Palmer",[7]; [34],100
same,Ragweed plant response rating,[8]; [33],60
same,"Plant response rating, Ragweed",[8]; [34],60
same,"Ryegrass, Italian plant response rating",[9]; [33],60
same,"Plant response rating, Ryegrass, Italian",[9]; [34],50
same,Soybean plant response rating,[10]; [33],90
same,"Plant response rating, Soybean",[10]; [34],90
same,Wheat plant response rating,[11]; [33],20
same,"Plant response rating, Wheat",[11]; [34],20
same,"Plant response rating, Barnyardgrass",[12]; [35],20
same,"Plant response rating, Barnyardgrass",[12]; [36],10
same,"Plant response rating, Blackgrass",[13]; [35],0
same,"Plant response rating, Blackgrass",[13]; [36],0
same,"Plant response rating, Corn",[14]; [35],30
same,"Plant response rating, Corn",[14]; [36],10
same,"Plant response rating, Foxtail, Green",[15]; [35],90
same,"Plant response rating, Foxtail, Green",[15]; [36],10
same,"Plant response rating, Kochia",[16]; [35],90
same,"Plant response rating, Kochia",[16]; [36],90
same,"Plant response rating, Oat, Wild",[17]; [35],40
same,"Plant response rating, Oat, Wild",[17]; [36],20
same,"Plant response rating, Pigweed, Palmer",[18]; [35],100
same,"Plant response rating, Pigweed, Palmer",[18]; [36],100
same,"Plant response rating, Ragweed",[19]; [35],50
same,"Plant response rating, Ragweed",[19]; [36],60
same,"Plant response rating, Ryegrass, Italian",[20]; [35],30
same,"Plant response rating, Ryegrass, Italian",[20]; [36],20
same,"Plant response rating, Soybean",[21]; [35],100
same,"Plant response rating, Soybean",[21]; [36],100
same,"Plant response rating, Wheat",[22]; [35],10
same,"Plant response rating, Wheat",[22]; [36],10
same,"Plant response rating, Galium",[23]; [35],100
same,"Plant response rating, Galium",[23]; [36],70
same,"Plant response rating, Horseweed",[24]; [35],30
same,"Plant response rating, Horseweed",[24]; [36],0
same,"Plant response rating, Barnyardgrass (Flood)",[25],0
same,"Plant response rating, Ducksalad (Flood)",[26],0
same,"Plant response rating, Rice (Flood)",[27],0
same,"Plant response rating, Sedge, Umbrella (Flood)",[28],0
